{"source": "patent US6908907B2", "about": "“Prevention and treatment of tumor growth, metastasis, and thromboembolic complications in cancer patients” (priority 2002, dated 2005)", "key": {"[1]": {"tested_on": "colon carcinoma (HCT-116)", "conditions": "CAM model; cited from earlier work"}, "[2]": {"tested_on": "tumor cell-induced thrombocytopenia", "experiment": "Tumor cell-induced clotting activation in vivo (platelet count)", "parameters": "species or system mice", "conditions": "700 ng i.v. 5 minutes prior to tumor cell injection", "description": "(§1) Tinzaparin is a low molecular weight heparin that is produced by heparinase depolymerization of unfractionated heparin allowing for its relatively high sulfate to carboxylate ratio. Beyond its potent plasmatic effects on ATIII-dependent coagulation factors, Tinzaparin is a very effective LMWH in causing the release of TFPI from the endothelial cells, the natural inhibitor of tissue factor pro-coagulant and non-coagulant effects. The present study was undertaken to investigate the effect of the LMWH, Tinzaparin as well as recombinant TFPI on experimental lung metastasis. […] In a second experimental group, in addition to the initial (pre-tumor cell) dose, subcutaneous Tinzaparin (10 mg/kg) was administered daily for 14 days at which time lung seeding was assessed. In the latter group, lung tumor formation was reduced by 96% (P<0.001). […] In order to determine the anticoagulant activity of Tinzaparin, 4 hrs after a single subcutaneous dose, whole blood re-calcification was measured using a Sonoclot Analyzer. Tinzaparin (10 mg/kg S.C.) prolonged the clotting time 4 fold. Furthermore, measuring the platelet count (a sensitive marker of intravascular coagulation) before and 15 minutes determined the effect of Tinzaparin on tumor cell-induced clotting activation in vivo after tumor cell injection in control and Tinzaparin-treated animals. […]"}, "B16 melanoma": {"tested_on": "B16 melanoma", "experiment": "B16 melanoma injectable model of experimental lung metastasis", "assay_type": "in vivo, mice", "conditions": "700 ng i.v. 5 minutes prior to tumor cell injection", "description": "as §1"}, "[3]": {"tested_on": "endothelial cell tube formation", "conditions": "concentration-dependent; cited from earlier work"}}}
{"substance": "r-TFPI: recombinant tissue factor pathway inhibitor", "values": [{"measurement": "inhibition of colon or lung carcinoma-induced angiogenesis, tumor growth and regression", "setting": "[1]", "result": "significant inhibition"}, {"measurement": "effect on tumor cell induced thrombocytopenia", "setting": "[2]", "result": "abolished tumor cell induced thrombocytopenia"}, {"measurement": "reduction of B16 lung metastasis", "setting": "B16 melanoma", "result": 85, "unit": "%"}, {"measurement": "effect on endothelial cell tube formation", "setting": "[3]", "result": "significant and comparable inhibitory effects"}]}
